Experiments:
crimson [1] = experiment: Yield of crimson grapes, each treatment carried out two times consecutively; format: in vivo, Vitis Vinifera sp.; details: two treatments 40 days apart, LPE 50 ppm, potassium silicate 100 ppm, 200 GPA, Ethrel 400 ppm, 100 GPA, FIG. 1
Description: (§1) The grape was selected as a test plant. Crimson and red globe (scientific name: Vitis Vinifera sp.) were used as the grape.
(§2) The control group 2 is the case where they are treated with Ethrel, which is widely sold and used as a plant growth regulator, in an amount of 400 ppm, 100 GPA.
(§3) The control group 3 is such that it is treated with the solution of LPE 10% in an amount of 50 ppm, 200 GPA.
(§4) The solutions were injected in a spray manner, except the control groups 1 and 5. The each treatment was carried out for an area of 5 acres. All treatments were carried out with a typical orchard air blast sprayer.
(§5) All harvests after the each treatment were carried out by the workers belonging to the farm according to the ordinary harvesting method, so that the grapes were harvested in accordance with a commercial standard. The number and grade of the box harvested from the respective treatment row were recorded for each harvest day, with regard to the each treatment.
For the crimson which is cultivated in California, the above 6 treatments were successively carried out two times.

crimson [2] = experiment: Yield of crimson grapes, single application; format: in vivo, Vitis Vinifera sp.; details: one treatment, LPE 50 ppm, potassium silicate 100 ppm, 200 GPA, FIG. 2
Description: as §1
The each treatment was carried out for an area of 5 acres. All treatments were carried out with a typical orchard air blast sprayer.
as §5
For the crimson which is cultivated in California, the above 6 treatments were carried out. The treatment was carried out only one time.

red globe = experiment: Yield of red globe grapes, each treatment carried out two times consecutively; format: in vivo, Vitis Vinifera sp.; details: two treatments 40 days apart, LPE 50 ppm, potassium silicate 100 ppm, 200 GPA, FIG. 3
Description: as §1, §2, §3, §4, §5
For the red globe which is cultivated in California, the above 6 treatments were successively carried out two times.

[3] = tested on: Muscat Bailey A (late-season cv.) grapes; experiment: Color of grape leaves; format: in vivo; details: two weeks after treatment; LPE 50 ppm, sodium silicate 100 ppm, 200 GPA; FIGS. 8a to 8c
Description: Grapes used in the experiment were Muscat Bailey A (late-season cv.). […] [table] Meanwhile, an observation after two weeks was also carried out for colors of grape leaves.

[4] = tested on: Muscat Bailey A (late-season cv.) grapes; experiment: Coloring development of grape fruit; format: in vivo; details: two weeks after treatment; LPE 50 ppm, sodium silicate 100 ppm, 200 GPA; FIGS. 7a to 7c
Source text: Grapes used in the experiment were Muscat Bailey A (late-season cv.). […] [table]

protoplast of corn root = experiment: Reactive oxygen species (ROS) by DCF-DA flow cytometry; format: cell-based, Zea mays L; details: incubated 5 minutes
Description: The corns (Zea mays L) were used according to the following procedures: seeds of Golden cross Bantam were sufficiently washed in the flowing water and immersed in the distilled water for 24 hours. Then, the seeds were arranged in a line on the cultivation dish where the paper wetted with the distilled water was put on the cultivation dish and the ventral side of the seeds was forced to touch with the dish bottom. The seeds were covered with the wetted paper by two folds. […] The individuals having the root length of 1.5-2 cm were selected and used in this experiment. The protoplast of the corn root etiolated was modified according to the following method (Sheen J, Metabolic repression of transcription in higher plants, Plant Cell, 1990 October: 2(10):1027-38). In other words, the protoplast was separated from the two-day etiolated young corn plant. […] The compound was converted into […] by the esterase in the cell, which was in turn oxidized by the reactive oxygen species such as H2O2 and thus changed into 2′, 7′-dichlorofluorescine (DCF) having the highest fluorescence. […]

mung beans = experiment: Adventitious root growth of mung beans; format: in vivo; details: two weeks after treatment; 50 ppm each; FIGS. 9 and 10
[5] = tested on: Muscat Bailey A (late-season cv.) grapes; experiment: Preservation stability of the grape fruit; format: in vivo; set-up: unit not given here; details: preserved at room temperature for 14 days
Source text: Grapes used in the experiment were Muscat Bailey A (late-season cv.).
The grapes treated in the Example 3 were harvested, and preserved at a room temperature for 14 days. Then, calculation has been done for a ratio of complete grape fruits that were not decayed or no bruise.

## lysophosphatidylethanolamine [LPE]
Crimson [1]
  yield of the grapes (ranking of groups): smaller than those of the control groups 1 and 5 which were not treated
Crimson [2]
  yield: 96.3
Red globe
  increase of yield as compared to the control groups 1 and 5, which were not treated: about 22 boxes
[3]
  colors of grape leaves: many leaves become discolored to yellow
[4]
  colors of grapes: excellent in the order of the experimental group 4, the control group 11, and the control group 10
Protoplast of corn root; LPE 20 ppm (combination: + sodium silicate 40 ppm)
  increase amount of ROS: 200-300%
Protoplast of corn root; LPE 50 ppm (combination: + sodium silicate 100 ppm)
  increase amount of ROS: 200-300%
Mung beans
  length of the adventitious roots: the length thereof is short
  number of the adventitious roots: large number
[5]; Average of 6 repeats
  ratio of complete grape fruits that were not decayed or no bruise: 6.9
[5]; Repeat 1
  ratio of complete grape fruits that were not decayed or no bruise: 14.2
[5]; Repeat 2
  ratio of complete grape fruits that were not decayed or no bruise: 15.6
[5]; Repeat 3
  ratio of complete grape fruits that were not decayed or no bruise: 4.0
[5]; Repeat 4
  ratio of complete grape fruits that were not decayed or no bruise: 0
[5]; Repeat 5
  ratio of complete grape fruits that were not decayed or no bruise: 3.7
[5]; Repeat 6
  ratio of complete grape fruits that were not decayed or no bruise: 3.7
